Entries after “also recorded” stand apart in the source; their conditions may differ.
Columns and labels:
[1] = patients, SR-MDMA paired psychotherapy; 25% in placebo group; cited from earlier work
[2] = target: T1, SERT (Homo sapiens, UniProt P31645); conditions: other studies; cited from earlier work
T1 construct: host or cells: HEK293T cells, transient transfection with Lipofectamine 3000

[3] = tested on: rat cortical neurons; test: Dendritogenesis (Sholl analysis) in cultured cortical neurons; assay type: cell-based; conditions: for dendritic complexity (Sholl analysis, Nmax): DIV 6 rat cortical cultures, 72-hours treatment, 10 uM and 100 nM, vs VEH; for dendritogenesis effect after ketanserin pretreatment: KTSN added 30 minutes before, 10-fold excess, DIV 6, 72-hours; for dendritic arbor complexity (Sholl analysis): increasing concentrations, efficacy in the nanomolar range
Procedure: For the dendritogenesis experiments conducted using cultured cortical neurons, E18 timed pregnant Sprague Dawley rats were obtained from Charles River Laboratories. Full culturing, staining and analysis experiments were performed as previously described with the exception that there was no media change during treatments. Dendrites were visualized using a chicken anti-MAP2 antibody (1:10,000; EnCor, CPCA-MAP2) as previously reported. DMSO and ketamine […] were used as vehicle and positive controls, respectively. For blocking experiments, ketanserin was added 30-minutes prior to addition of agonists in 10-fold excess.
(§1) Statistical Analysis. Appropriate samples sizes were estimated based on our previous experiences performing similar experiments. Treatments were randomized, and data were analyzed by experimenters blinded to treatment conditions. All comparisons were planned prior to performing each experiment. Statistical analyses were performed using GraphPad Prism (v.8.1.2). Data are represented as mean±s.e.m., unless otherwise noted, with asterisks indicating *P<0.05, **P<0.01, ***P<0.001 and ****P<0.0001.

[4] = tested on: rat cortical neurons; test: Spinogenesis (dendritic spine density) in mature cortical cultures; assay type: cell-based; conditions: for dendritic spine density: DIV 15 rat cortical neurons, 24-hours treatment; for spinogenesis effect after ketanserin pretreatment: KTSN 30-minute pretreatment, 10-fold excess, DIV 15, 24-hours
Procedure: Spinogenesis experiments were performed as previously described with the exception that cells were treated at DIV14 instead of DIV18 and then fixed on DIV15. The images were taken on a Nikon HCA Confocal microscope a with a 100x/NA 1.45 oil objective. DMSO and ketamine […] were used as vehicle and positive controls, respectively. For blocking experiments, ketanserin was added 30-minutes prior to addition of agonists in 10-fold excess.
as §1

[5] = Body temperature assay (IR thermometer); assay type: in vivo, mice; conditions: for increase in body temperature (hyperthermia): 12.5, 25, 50 mg/kg i.p., measured for 2-hours
Procedure: (§2) The head-twitch response assay was performed as described previously using both male and female C57BL/6J mice (3 each per treatment). The mice were obtained from Jackson Laboratory and were approximately 9 weeks old at the time of the experiments. Before injecting the mice, their baseline temperature was measured using an IR thermometer as described. Compounds were administered via intraperitoneal (i.p.) injection (5 ml kg-1) using 0.9% saline as the vehicle. Immediately after the animals were placed in an arena for 30-minutes where their locomotor activity was assessed using AnyMaze automated tracking software. The behavior was also videotaped and later scored by two blind overserves for head-twitch responses, the results were averaged. Upon completion of the novelty induced locomotion assay their temperature was measured at the 30-minute mark. The mice were then transferred to a holding cage with their other treatment matched cage mates and their temperature was measured at the 90 and 120-minute mark.

[6] = Novelty induced locomotion (NIL) test; assay type: in vivo, mice; conditions: for locomotion at the lower doses: 12.5 mg/kg and 25 mg/kg; for locomotion at highest dose: 50 mg/kg i.p., vs vehicle; for locomotion (total distance) in novel arena, dose dependence / time spent in the center of the arena: 12.5, 25, 50 mg/kg i.p., 30-minutes
Procedure: as §2

[7] = Head-twitch response (HTR) assay; assay type: in vivo, mice; conditions: first 20-minutes in novel arena; 12.5, 25, 50 mg/kg i.p.
Procedure: as §2

[8] = Cued fear conditioning / fear extinction; assay type: in vivo, mice; conditions: for fear extinction test curve vs vehicle: 12.5 and 25 mg/kg curves; for freezing during extinction training (day 2): 12.5 and 25 mg/kg i.p. 30-min before extinction training; for conditioned freezing on extinction testing day (24-hours later, drug-free): treatment i.p. 30-min before extinction training on day 2, 16 CS tones
From the text: Mice were exposed to cued fear conditioning on day 1, fear extinction training on day 2 and extinction testing on Day 3. Mice were habituated to handling for 3 days before experimentation. On the day of the experiment mice were allowed to habituate to the behavior room for 1-hour before beginning the experiment. 15-minutes before starting the experiment, mice were separated out into individual holding cages.
Cued fear conditioning consisted of six pairings of a CS auditory cue (80-85 dB white noise, 15 s) and a co-terminating US footshock (0.85 mA and 2 s), each spaced 1.5 minutes apart. The fear conditioning apparatus (Med Associates model #MED-VFC2-SCT-R) consisted of a 30.5 cm×24.1 cm×21 cm internal soundproof chamber, with metal grated floors, an infrared camera, a sound generator, and a light source. Mice were initially placed in the conditioning apparatus and the first 1.5 minutes were stimulus free. After the last shock, the animals remained in the chambers for an additional 2 min before being returned to their home cages. […] Freezing responses for fear conditioning (day 1) are presented as the percentage of time spent freezing during the last 1.5 minutes after the last shock. The apparatus was cleaned with 70% EtOH in between trials.
Cued fear memory was assessed by exposing the animals to a novel context (lights off, A-frame insert, smooth plastic floor insert, additional vanilla odor) for 2 min prior to 16 presentations of auditory cues (80 dB white noise, 15 s) spaced 15 s apart. Freezing responses for cue testing (day 2 and 3) are presented as the percentage of time spent freezing during the tone presentations. The procedure was repeated on day 3 in the absence of drug.
Fear conditioning experiments were performed between the hours of 08:00-11:00. Freezing behavior was scored using Med Associates Video Freeze software v2.25 (motion threshold=100 au, detection method=linear, minimum freeze duration=15 frames, which is equal to a 0.5 s freeze). The apparatus was cleaned with 70% EtOH in between trials on day 1 and Sani-cloth gemicidal disposable cloths (PDI, Q89072) were used to clean the apparatus on days 2 and 3.

[9] = target: T1, SERT; test: SERT efflux: [3H]5-HT release from SERT expressing HEK293T cells; assay type: cell-based; conditions: HEK293T cells transiently expressing SERT, 10 pM-100 uM
Procedure: HEK293T cells were grown in Dulbecco's Modified Eagle Media (DMEM) supplemented with 10% fetal bovine serum (FBS) and 1% penicillin-streptomycin. 24 hours prior to the experiment, cells were plated in 24-well plates at a density of 150,000 cells/well and concurrently transfected using Lipofectamine 3000 according to the manufacturer's protocol. Cells were transfected with hSERT-N1-pEYFP (Addgene #70105) or a GFP control plasmid (Lonza pmaxGFP vector). The next day the wells were washed (1×500 μL) with 1× Hank's Balanced Salt Solution supplemented with 2 mM MgCl2 and 2 mM CaCl2 (HBSS) and the plate was placed on a 37° C. water bath for the remainder of the experiment. 250 μL of HBSS containing 10 nM 5-[1,2-3H[N]]-hydroxytryptamine creatinine sulfate (NET498001MC, Lot: 2902700) was added to the wells and incubated for 15 minutes, allowing uptake into SERT expressing HEK cells. Uptake was terminated by aspiration of wells followed by washes (3×500 μL) with HBSS. […] 200 μL of media was collected from each well and placed into a scintillation vial containing 1 mL PerkinElmer Ultima Gold™ scintillation cocktail to serve as the efflux fraction. […] Radioactivity in the form of disintegrations per minute (DPM) was determined the following day with the use of a Beckman LS 6000 liquid scintillation counter. […] The GFP control cells were checked to ensure radioactivity was below background levels.

[10] = tested on: 5-HT2A biosensor; test: psychLight 5-HT2A biosensor in cultured cortical neurons; assay type: cell-based; conditions: DIV 10-14 rat cortical neurons, 10 uM, vs vehicle
Procedure: E18 rat cortical neurons were plated at 60,000 cells/well in glass 96-well plates (P96-1.5H-N, Cellvis) coated with poly-D-lysine (Sigma, P6407-5MG). At day in vitro (DIV) 3-7 neurons were infected with AAV9_hSynapsin_psychLight2 (Neurophotonics-Viral Vector Core) or AAV9-hsyn-GRAB_5-HT1.0 (Addgene, 140552-AAV9) at an MOI of 70,000. Neurons were kept in the incubator for one week to allow for viral expression. On imaging day (DIV 10-14), media was aspirated and wells were washed (1×200 μL) with HBSS supplemented with 2 mM MgCl2 and 2 mM CaCl2. 50 μL HBSS was added to the wells of the assay plate and then imaged on a CellInsight CX7 HCA Platform (Thermo Fisher, CX7A1110) configured with a onstage incubator for live cell imaging (Thermo Fisher, NX7LIVE001) at 40×(N.A.=0.60) with 25 regions of interest (ROI) taken per well using an arbitrary ROI pattern for each well with no bias to location and no overlap of the ROIs (exposure=400 ms, LED power=100%). […]
Images were then analyzed using ImageJ by selecting ROIs surrounding individual neuronal cell bodies of the post-treatment images and recording the mean fluorescence, the same ROIs were applied to the pretreatment images to record the mean fluorescence. The […] values were calculated as previously reported.

[11] = Tail suspension test; assay type: in vivo, mice; conditions: i.p. injection, tested after 24 h, vs vehicle
Procedure: Male C57/BL6J mice (9-10 weeks of age at time of experiment) were obtained from the Jackson Lab and housed in a UCD vivarium. […] All experiments were carried out by the same experimenter who performed the handling. Twenty-four hours after treatments, animals were subjected to a tail suspension test. Animals were suspended from their tails approximately 16 cm from the top of the apparatus and 25 cm from the bottom of the apparatus. Behavior was video recorded for 6 min and analyzed later by an experimenter blinded to treatment conditions. Immobility was defined as the amount of time spent not struggling or attempting to generate momentum and was scored for the entire 6 min period. All TST sessions were performed between the hours of 08:00 and 13:00.

T1 sequence (P31645 whole entry): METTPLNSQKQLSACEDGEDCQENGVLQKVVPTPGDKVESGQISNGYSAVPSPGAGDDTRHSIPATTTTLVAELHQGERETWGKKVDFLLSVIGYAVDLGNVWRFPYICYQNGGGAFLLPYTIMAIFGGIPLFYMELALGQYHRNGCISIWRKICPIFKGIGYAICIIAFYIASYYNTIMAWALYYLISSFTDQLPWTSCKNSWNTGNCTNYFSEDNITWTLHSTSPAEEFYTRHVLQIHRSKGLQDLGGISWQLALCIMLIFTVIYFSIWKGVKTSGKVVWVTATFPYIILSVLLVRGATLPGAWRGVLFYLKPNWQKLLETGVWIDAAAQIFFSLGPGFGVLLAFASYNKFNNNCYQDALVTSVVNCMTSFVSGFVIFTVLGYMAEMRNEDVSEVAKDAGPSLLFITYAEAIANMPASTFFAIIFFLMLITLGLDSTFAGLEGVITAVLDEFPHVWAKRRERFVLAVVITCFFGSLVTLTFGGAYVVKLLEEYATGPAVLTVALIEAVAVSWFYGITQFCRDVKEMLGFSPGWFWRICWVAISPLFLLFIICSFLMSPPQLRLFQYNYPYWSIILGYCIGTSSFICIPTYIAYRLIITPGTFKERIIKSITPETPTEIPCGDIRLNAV

Compound | dendritic complexity (Sholl analysis, Nmax) [3] | dendritogenesis effect after ketanserin pretreatment [3] | dendritic arbor complexity (Sholl analysis) [3] | dendritic spine density [4] | spinogenesis effect after ketanserin pretreatment [4] | increase in body temperature (hyperthermia) [5] | locomotion at the lower doses [6] | locomotion at highest dose [6] | locomotion (total distance) in novel arena, dose dependence [6] | time spent in the center of the arena [6] | head twitch response (hallucinogenic potential) [7] | fear extinction test curve vs vehicle [8] | freezing during extinction training (day 2) [8] | conditioned freezing on extinction testing day (24-hours later, drug-free) [8] | psychlight 5-HT2A biosensor response [10] | also measured
CNC(C)Cc1ccc2c(c1)OCO2 (racemic) [SR-MDMA, S,R(+/−)-3,4-methylenedioxymethamphetamine] |  |  |  |  |  |  |  |  |  |  |  |  |  |  |  | response rate in decreasing the symptoms of PTSD [1]: 83%
CC(Cc1ccc2c(c1)OCO2)N(C)C (racemic) [racemic version of LED] |  |  |  |  |  |  |  |  |  |  |  |  |  |  |  | 5-HT uptake inhibition and release [2]: moderate ability to inhibit uptake of 5-HT as well as promote its release
C[C@H](Cc1ccc2c(c1)OCO2)N(C)C [LED, (R)-1-(benzo[d][1,3]dioxol-5-yl)-N,N-dimethylpropan-2-amine] | increases in dendritic complexity | blocked by ketanserin | robustly increased dendritic arbor complexity | increases dendritic spine density | KTSN blocks the spinogenesis effects | Neither compound induced any increases in body temperature | neither of them altered changes in locomotion or had psychostimulant properties | significant decrease in locomotion | dose dependent decrease in locomotion | only the highest doss caused a decrease in time spent in the center | Neither compound elicited a significant HTR | statistically lower than the vehicle control curve | neither dose influenced freezing during extinction training | the 12.5 mg/kg dose of LED resulted in reduced freezing on testing day | Neither LED nor R-MDMA induced a significant response | promotion of plasticity (Sholl analysis), comparison of enantiomers and racemates ([3]; cultured cortical neurons, FIG. 5, listed as R-MDDMA): more effect at promoting plasticity than either the S-enantiomer or the racemic mixture; also recorded: more effective than racemic MDMA; body temperature relative to vehicle ([5]; 50 mg/kg i.p., 30-minute time point): significant decrease in temperature; fear extinction, females only ([8]; separated by sex, females): females display enhanced extinction with the 12.5 mg/kg dose; fear extinction, males only ([8]; separated by sex, males): males display enhanced extinction with the 25 mg/kg dose; [3H]5-HT release (efflux) [9]: failed to induce [^3H]5-HT release; antidepressant behavioral effect (tail suspension test immobility) [11]: produces antidepressant behavioral effects
R-3,4-Methylenedioxy methamphetamine [R-MDMA, reference compound] | increases in dendritic complexity | blocked by ketanserin | robustly increased dendritic arbor complexity | increases dendritic spine density, comparably to R-MDMA | KTSN blocks the spinogenesis effects | Neither compound induced any increases in body temperature | neither of them altered changes in locomotion or had psychostimulant properties | exhibits psychostimulant effects | dose dependent increase in locomotion | all doses decreased time spent in the center | Neither compound elicited a significant HTR | statistically lower than vehicle control | decreased freezing during extinction training and testing | decreased freezing during extinction training and testing | Neither LED nor R-MDMA induced a significant response | 
